Source: PubChem BioAssay (NCI)
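Step 1: Grow cells in 96-well plates. Step 2: Expose to compound for 48 hours at 5 concentrations. Step 3: Interpolate endpoints linearly; if unreached, use highest concentration. At the GI50, growth is halved. Definition used: TGI = concentration required for complete inhibition of growth.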

Experiments:
Assay in all cases: NCI tumour cell line growth inhibition, 48 h
[1] = test system: HCT-116 colon
[2] = test system: SW-620 colon
[3] = test system: SK-OV-3 ovarian
[4] = test system: NCI/ADR-RES ovarian
[5] = test system: LOX IMVI melanoma
[6] = test system: RXF 393 renal
[7] = test system: PC-3 prostate
[8] = test system: A549 NSCLC
[9] = test system: UACC-62 melanoma
[10] = test system: OVCAR-3 ovarian
[11] = test system: UACC-257 melanoma
[12] = test system: NCI-H522 lung
[13] = test system: BT-549 breast
[14] = test system: M14 melanoma
[15] = test system: KM12 colon
[16] = test system: SNB-75 CNS
[17] = test system: OVCAR-4 ovarian
[18] = test system: 786-0 renal
[19] = test system: SK-MEL-2 melanoma
[20] = test system: TK-10 renal
[21] = test system: SF-295 CNS
[22] = test system: NCI-H460 lung
[23] = test system: IGROV1 ovarian
[24] = test system: SR leukemia
[25] = test system: HT29 colon
[26] = test system: NCI-H23 lung
[27] = test system: CCRF-CEM leukemia
[28] = test system: HCT-15 colon
[29] = test system: SNB-19 CNS
[30] = test system: HL-60(TB) leukemia
[31] = test system: HOP-92 NSCLC
[32] = test system: RPMI-8226 leukemia
[33] = test system: MDA-MB-435
[34] = test system: UO-31 renal
[35] = test system: MCF7 breast
[36] = test system: T-47D breast
[37] = test system: OVCAR-8 ovarian
[38] = test system: A498 renal
[39] = test system: HOP-62 NSCLC
[40] = test system: SF-268 CNS
[41] = test system: SK-MEL-5 melanoma
[42] = test system: NCI-H226 lung
[43] = test system: HS 578T breast
[44] = test system: SN12C renal
[45] = test system: SK-MEL-28 melanoma
[46] = test system: HCC-2998 colon
[47] = test system: U251 CNS
[48] = test system: MALME-3M melanoma
[49] = test system: SF-539 CNS
[50] = test system: K-562 leukemia
[51] = test system: EKVX NSCLC
[52] = test system: MOLT-4 leukemia
[53] = test system: DU-145 prostate
[54] = test system: MDA-MB-231 breast
[55] = test system: OVCAR-5 ovarian
[56] = test system: ACHN renal
[57] = test system: COLO 205 colon

## COC(=O)C(C)NP(=O)(OCc1ccc(Cn2cnc3c(N)ncnc32)cc1)Oc1ccccc1 (centres undefined)
[1]
  GI50: 26 µM
  TGI: 63.4 µM
[2]
  GI50: > 83.5 µM
  TGI: > 100 µM
[3]
  GI50: > 100 µM
  TGI: > 100 µM
[4]
  GI50: > 100 µM
  TGI: > 100 µM
[5]
  GI50: 21.4 µM
  TGI: 53.8 µM
[6]
  GI50: 81.5 µM
  TGI: > 100 µM
[7]
  GI50: 31.3 µM
  TGI: > 100 µM
[8]
  GI50: > 84.2 µM
  TGI: > 100 µM
[9]
  GI50: 28.6 µM
  TGI: > 94.1 µM
[10]
  GI50: 34.7 µM
  TGI: > 82.1 µM
[11]
  GI50: > 100 µM
  TGI: > 100 µM
[12]
  GI50: 28.4 µM
  TGI: > 69 µM
[13]
  GI50: 24.2 µM
  TGI: 72.5 µM
[14]
  GI50: 55.4 µM
  TGI: > 100 µM
[15]
  GI50: 25.2 µM
  TGI: > 96.1 µM
[16]
  GI50: 40.1 µM
  TGI: > 100 µM
[17]
  GI50: > 100 µM
  TGI: > 100 µM
[18]
  GI50: > 100 µM
  TGI: > 100 µM
[19]
  GI50: > 73.9 µM
  TGI: > 100 µM
[20]
  GI50: > 100 µM
  TGI: > 100 µM
[21]
  GI50: > 78.9 µM
  TGI: > 100 µM
[22]
  GI50: 67.9 µM
  TGI: > 100 µM
[23]
  GI50: 39.1 µM
  TGI: > 100 µM
[24]
  GI50: > 100 µM
  TGI: > 100 µM
[25]
  GI50: > 67.8 µM
  TGI: > 100 µM
[26]
  GI50: 36.5 µM
  TGI: > 100 µM
[27]
  GI50: 50 µM
  TGI: > 100 µM
[28]
  GI50: > 100 µM
  TGI: > 100 µM
[29]
  GI50: > 64.2 µM
  TGI: > 100 µM
[30]
  GI50: 79.9 µM
  TGI: > 100 µM
[31]
  GI50: 29.8 µM
  TGI: > 100 µM
[32]
  GI50: 17.1 µM
  TGI: 65.3 µM
[33]
  GI50: 43 µM
  TGI: > 100 µM
[34]
  GI50: > 100 µM
  TGI: > 100 µM
[35]
  GI50: 36.8 µM
  TGI: > 100 µM
[36]
  GI50: > 56.7 µM
  TGI: > 100 µM
[37]
  GI50: 76.8 µM
  TGI: > 100 µM
[38]
  GI50: > 100 µM
  TGI: > 100 µM
[39]
  GI50: > 68.6 µM
  TGI: > 100 µM
[40]
  GI50: 36.9 µM
  TGI: > 100 µM
[41]
  GI50: 6.39 µM
  TGI: 33.4 µM
[42]
  GI50: > 93.5 µM
  TGI: > 100 µM
[43]
  GI50: 15.5 µM
  TGI: 49.7 µM
[44]
  GI50: 73.4 µM
  TGI: > 100 µM
[45]
  GI50: 30.4 µM
  TGI: > 84.9 µM
[46]
  GI50: 27.7 µM
  TGI: 84.4 µM
[47]
  GI50: 37.3 µM
  TGI: > 100 µM
[48]
  GI50: 20.8 µM
  TGI: 57 µM
[49]
  GI50: > 100 µM
  TGI: > 100 µM
[50]
  GI50: > 93.1 µM
  TGI: > 100 µM
[51]
  GI50: > 81.2 µM
  TGI: > 100 µM
[52]
  GI50: 32.2 µM
  TGI: > 100 µM
[53]
  GI50: > 100 µM
  TGI: > 100 µM
[54]
  GI50: > 63.4 µM
  TGI: > 100 µM
[55]
  GI50: > 100 µM
  TGI: > 100 µM
[56]
  GI50: > 100 µM
  TGI: > 100 µM
[57]
  GI50: > 91.6 µM
  TGI: > 100 µM
